The supplement of paper PMC4862054

Tests used:
[1] = tested on: HCC1143; experiment: normalised viability (% of control), CellTiter-Blue; higher = more viable cells (about 100 = DMSO control); conditions: incubation time: 72 h
In short: (§1)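 Breast cancer cell lines were treated for 72 h in 384-well format and measured by CellTiter-Blue fluorescence at 560/590 nm. Results were normalised per plate to vehicle (100) and a positive kill control (0). The entry is normalised viability at a single listed concentration of the series.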

[2] = tested on: Hs578T; experiment: as above; conditions: incubation time: 72 h
In short: as §1

[3] = tested on: MDA-MB-468; experiment: as above; conditions: incubation time: 72 h
In short: as §1

[4] = tested on: CAL-148; experiment: as above; conditions: incubation time: 72 h
In short: as §1

[5] = tested on: CAL-120; experiment: as above; conditions: incubation time: 72 h
In short: as §1

[6] = tested on: HCC1937; experiment: as above; conditions: incubation time: 72 h
In short: as §1

[7] = tested on: MFM-223; experiment: as above; conditions: incubation time: 72 h
In short: as §1

[8] = tested on: HCC1599; experiment: as above; conditions: incubation time: 72 h
In short: as §1

[9] = tested on: BT-474; experiment: as above; conditions: incubation time: 72 h
In short: as §1

[10] = tested on: CAL-85-1; experiment: as above; conditions: incubation time: 72 h
In short: as §1

[11] = tested on: HDQ-P1; experiment: as above; conditions: incubation time: 72 h
In short: as §1

[12] = tested on: MDA-MB-231; experiment: as above; conditions: incubation time: 72 h
In short: as §1

[13] = tested on: CAL-51; experiment: as above; conditions: incubation time: 72 h
In short: as §1

[14] = tested on: SK-BR-3; experiment: as above; conditions: incubation time: 72 h
In short: as §1

[15] = tested on: MDA-MB-436; experiment: as above; conditions: incubation time: 72 h
In short: as §1

[16] = tested on: BT-549; experiment: as above; conditions: incubation time: 72 h
In short: as §1

[17] = tested on: DU-4475; experiment: as above; conditions: incubation time: 72 h
In short: as §1

[18] = tested on: MDA-MB-453; experiment: as above; conditions: incubation time: 72 h
In short: as §1

[19] = tested on: MDA-MB-468; conditions: 72 h
In short: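 Per-plate normalisation used 0.1 % DMSO and a positive kill control. Breast cancer cell lines (20 µl suspension) were seeded into 384-well plates containing compound at 5 concentrations in 10-fold steps across a compound-specific 10,000-fold range, incubated for 72 h, and read first for CellTox Green fluorescence (485/520 nm), then for CellTiter-Glo luminescence. EC50 was fitted from the dose-response curves and censored at the top concentration.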

CO[C@H]1C[C@@H]2CC[C@@H](C)[C@@](O)(O2)C(=O)C(=O)N2CCCC[C@H]2C(=O)O[C@H]([C@H](C)C[C@@H]2CC[C@@H](OP(C)(C)=O)[C@H](OC)C2)CC(=O)[C@H](C)/C=C(\C)[C@@H](O)[C@@H](OC)C(=O)[C@H](C)C[C@H](C)/C=C/C=C/C=C/1C [Ridaforolimus]
normalised viability [%]
Conditions	0.3 nM	1 nM	3 nM	10 nM	100 nM	1000 nM
[1]	–	71.5	–	–	56.1	56.8
[2]	–	62.9	–	–	57.2	54.3
[3]	–	66.4	–	–	59.3	60.4
[4]	79.9	–	43.8	36.6	–	–
[5]	–	70	–	–	50	46.9
[6]	–	52.4	–	–	62.5	69.5
[7]	–	56.3	–	–	45	43.3
[8]	–	105	–	–	98.7	72.5
[9]	–	75.5	–	–	63	61.7
[10]	68	–	57.1	59.5	–	–
[11]	96.2	–	90.1	74.4	–	–
[12]	–	86.4	–	–	81.8	70.4
[13]	90.1	–	56.2	38.6	–	–
[14]	–	79.8	–	–	51	42.4
[15]	–	81.3	–	–	94.5	79
[16]	–	62.3	–	–	62.9	56.8
[17]	100	–	61.7	57.9	–	–
[18]	85.4	–	30	24.5	–	–

Conditions	EC50, CellTiter-Glo [µM]
[19]	0.00033

c1ccc2c(CCNc3ccc(Nc4ccncc4)cc3)c[nH]c2c1 [Serdemetan]
normalised viability [%]
Conditions	3 nM	10 nM	30 nM	100 nM	1000 nM	10000 nM
[1]	–	87.7	–	–	77.7	43.3
[2]	–	108	–	–	91.5	66.8
[3]	–	111	–	–	103	60.9
[4]	88.9	–	86.1	96.3	–	–
[5]	–	88	–	–	91.4	48.1
[6]	–	91.2	–	–	94.3	51.4
[7]	–	83.2	–	–	104	66.4
[8]	–	103	–	–	93.8	74.6
[9]	–	106	–	–	106	94.4
[10]	93.3	–	85.8	84.5	–	–
[11]	97.5	–	99.7	96.7	–	–
[12]	–	88.4	–	–	89.5	58.2
[13]	118	–	106	108	–	–
[14]	–	96.6	–	–	116	72.2
[15]	–	96.8	–	–	51.4	43.6
[16]	–	95.6	–	–	81.5	26.5
[17]	93.1	–	88.3	89.6	–	–
[18]	119	–	93.8	104	–	–

Conditions	EC50, CellTiter-Glo [µM]
[19]	2.28
